# According to patent US5219873A, “Compounds of 1,2,5,6-tetrahydropyridine which are useful as cholinergic agents” (Roussel UCLAF, priority 1987, dated 1993):
# Like-named read-outs stand apart in the source and are kept apart here.
# Columns and labels:
# [1] = Hypothermic activity, male mice (body temperature); assay type: in vivo, mice (CD1 Charles Rivers); conditions: for ED (-1 C body temperature): Mus musculus, male mice, read-out: Effective dose (-1° C.)
# Protocol: (§1) The products have been utilized in the hydrochloride form.
# The test is carried out on male mice (CD1 Charles Rivers), weighing 25-30 g, fasting for 6 hours.
# The temperature of the body is noted by means of a thermocouple placed in the rectum to about 1.5 cm and connected to an electric temperature recorder. […]
# The degree of hypothermia is evaluated as the difference between the treated animals and the controls, and the dose necessary to reduce the body temperature by 1° C. is determined.
# The duration of action of the products has been evaluated by using the dose which reduces the body temperature by 1° to 1.5° C.
# [2] = tested on: ileum isolated from guinea-pig; assay: Test on ileum isolated from guinea-pig (contraction, agonist activity); assay type: cell-based; conditions: Cavia porcellus, Tyrode's solution, 37° C., read-out: pD2 (negative logarithm of the dose which produces 50% of the maximum effect) (converted)
# Protocol: as §1
# Pieces of the ileum are removed from guinea-pigs killed by decapitation. The isolated ileum is placed in 10 cm^3 of Tyrode's solution at 37° C. and aerated with a mixture of oxygen (95%) and carbon dioxide gas (5%). The contractions due to the products are recorded by means of a detector connected to a polygraph. The products to be tested are added at concentrations between 1.10^-3 M/l and 1.10^-8 M/l.
# The products presenting a contraction effect are tested relative to atropine and hexamethonium to establish whether the activity is of the "muscarine" or "nicotine" type.
# The agonist activity is expressed in pD2 (negative logarithm of the dose which produces 50% of the maximum effect.
# [3] = Diarrhoeic activity, oral, male mice; assay type: in vivo, mice (CD1, Charles Rivers); conditions: Mus musculus, read-out: ED50 (dose which caused a diarrhoea in 50% of the animals)
# Protocol: as §1
# The test is carried out on male mice (CD1, Charles Rivers) weighing 25 to 30 g, fasting for 6 hours.
# The control animals receive only the excipient.
# After treatment, the animals are put separately in cages the base of which is covered with blotting paper and are put under observation for 30, 60, 120 and 180 minutes.
# The sheets of absorbent paper are changed after each observation.
# 1: feces slightly soft with or without humid aureola.
# 2: feces slightly soft with presence of a well defined humid circle.
# 3: feces soft with presence of a large humid circle.
# 4: feces without consistency with presence of a very large humid circle.
# [4] = tested on: central cholinergic system; conditions: cited from earlier work
# [5] = intravenous route; cited from earlier work
# [6] = Acute toxicity, oral, male mice; set-up: species or system mice (CD1 Charles Rivers); conditions: mouse, in vivo, mortality during 7 days
# Protocol: as §1
# The test was carried out on male mice (CD1 Charles Rivers) of 22 to 24 g, fasting for 16 hours. […] The mortality is noted during the 7 days following the treatment.
Compound,EC50 [2] [µM],ED50 [3] [mg/kg],"ED (-1 C body temperature) ([1]; po, per os) [mg/kg]","ED (-1 C body temperature) ([1]; sc, s.c.) [mg/kg]",LD50 at 168 h [6] [mg/kg],"Variation of the Body Temperature ([1]; 1 mg/kg p.o., 0 min)","Variation of the Body Temperature ([1]; 1 mg/kg p.o., 30 min) [°C]","Variation of the Body Temperature ([1]; 1 mg/kg p.o., 60 min) [°C]","Variation of the Body Temperature ([1]; 1 mg/kg p.o., 120 min) [°C]","Variation of the Body Temperature ([1]; 1 mg/kg p.o., 180 min) [°C]","Variation of the Body Temperature ([1]; 1 mg/kg s.c., 0 min)","Variation of the Body Temperature ([1]; 1 mg/kg s.c., 30 min) [°C]","Variation of the Body Temperature ([1]; 1 mg/kg s.c., 60 min) [°C]","Variation of the Body Temperature ([1]; 1 mg/kg s.c., 120 min)","Variation of the Body Temperature ([1]; 1 mg/kg s.c., 180 min)",other results
"COC(=O)C1=CCCN(C)C1 [Arecoline HBr, reference compound]",–,–,–,–,–,–,–,–,–,–,–,–,–,–,–,"Variation of the Body Temperature ([1]; 3.5 mg/kg s.c., 0 min): -0.1 °C; Variation of the Body Temperature ([1]; 3.5 mg/kg s.c., 30 min): -1.5 °C; Variation of the Body Temperature ([1]; 3.5 mg/kg s.c., 60 min): -0.1 °C; Variation of the Body Temperature ([1]; 3.5 mg/kg s.c., 120 min): +0.2 °C; Variation of the Body Temperature ([1]; 3.5 mg/kg s.c., 180 min): +0.2 °C; Variation of the Body Temperature ([1]; 200 mg/kg p.o., 0 min): +0.1 °C; Variation of the Body Temperature ([1]; 200 mg/kg p.o., 30 min): -1.1 °C; Variation of the Body Temperature ([1]; 200 mg/kg p.o., 60 min): -1.0 °C; Variation of the Body Temperature ([1]; 200 mg/kg p.o., 120 min): -0.2 °C; Variation of the Body Temperature ([1]; 200 mg/kg p.o., 180 min): -0.1 °C"
"COC(=O)C1=CCCN(C)C1 [Arecoline, reference compound]",0.331,35,194,3,–,–,–,–,–,–,–,–,–,–,–,activity by oral route [4]: very weak activity by oral route; effect on patients having a memory defect [5]: positive effect on patients having a memory defect
"CC(=NO)C1=CCCNC1 [Example 1, 3-acetyl-1,2,5,6-tetrahydropyridine-oxime]",5.62,5,9,11,350,–,–,–,–,–,–,–,–,–,–,"Variation of the Body Temperature ([1]; 10 mg/kg p.o., 0 min): 0 °C; Variation of the Body Temperature ([1]; 10 mg/kg p.o., 30 min): -0.7 °C; Variation of the Body Temperature ([1]; 10 mg/kg p.o., 60 min): -1.0 °C; Variation of the Body Temperature ([1]; 10 mg/kg p.o., 120 min): -0.2 °C; Variation of the Body Temperature ([1]; 10 mg/kg p.o., 180 min): +0.1 °C; Variation of the Body Temperature ([1]; 10 mg/kg s.c., 0 min): 0 °C; Variation of the Body Temperature ([1]; 10 mg/kg s.c., 30 min): -0.6 °C; Variation of the Body Temperature ([1]; 10 mg/kg s.c., 60 min): -0.8 °C; Variation of the Body Temperature ([1]; 10 mg/kg s.c., 120 min): -0.2 °C; Variation of the Body Temperature ([1]; 10 mg/kg s.c., 180 min): 0 °C"
"CON=C(C)C1=CCCN(C)C1 [Example 2, 1-methyl-3-acetyl-1,2,5,6-tetrahydropyridine-O-methyl-oxime]",14.1,> 100,12,25,350,–,–,–,–,–,–,–,–,–,–,"Variation of the Body Temperature ([1]; 20 mg/kg p.o., 0 min): +0.1 °C; Variation of the Body Temperature ([1]; 20 mg/kg p.o., 30 min): -1.3 °C; Variation of the Body Temperature ([1]; 20 mg/kg p.o., 60 min): -1.3 °C; Variation of the Body Temperature ([1]; 20 mg/kg p.o., 120 min): -0.9 °C; Variation of the Body Temperature ([1]; 20 mg/kg p.o., 180 min): 0 °C; Variation of the Body Temperature ([1]; 40 mg/kg s.c., 0 min): +0.1 °C; Variation of the Body Temperature ([1]; 40 mg/kg s.c., 30 min): -1.0 °C; Variation of the Body Temperature ([1]; 40 mg/kg s.c., 60 min): -1.4 °C; Variation of the Body Temperature ([1]; 40 mg/kg s.c., 120 min): -1.1 °C; Variation of the Body Temperature ([1]; 40 mg/kg s.c., 180 min): -0.8 °C"
"CON=C(C)C1=CCCNC1 [Example 3, 3-acetyl-1,2,5,6-tetrahydropyridine-O-methyl-oxime]",0.0316,0.85,0.87,0.91,125,+0.1 °C,-1.1,-1.0,-0.1,-0.1,+0.1 °C,-1.0,-0.8,+0.1 °C,+0.1 °C,–
"CON=C(C)C1=CCCN(O)C1 [Example 12, 1-N-hydroxyl-3-acetyl-1,2,5,6-tetrahydropyridine-O-methyl-oxime]",4.07,1,0.77,0.72,175,0 °C,-1.3,-1.1,0,0,-0.1 °C,-1.4,-1.3,+0.1 °C,0 °C,–
